Usually Vd stands for the apparent volume that relates the amount in the body to the concentration in plasma or blood. A high value points to extensive tissue distribution. In general, half-life refers to the time needed for the level to fall by half in the phase considered. Higher therefore signals slow decline. As usually defined, the clearance is the rate of elimination divided by the concentration. A low value points to inefficient removal. For orientation: bioavailability means dose-corrected exposure relative to a reference, in per cent. Low readings indicate poor availability, high ones good availability.

From ChEMBL document CHEMBL4837246 (J Med Chem, 2021) come the findings set out here.

Molecules are shown by their SMILES.

Data set [1] can be described thus: in vivo. The settings on record: mouse, iv, 0.3 mg/kg.
Data set [2] in a line: in vivo. The note with it: Wistar, rat, po, 0.6 mg/kg.
The nature of data set [3]: in vivo. The note with it: Wistar, rat, iv, 0.3 mg/kg.
A short description of data set [4]: in vivo. The note with it: mouse, iv, 0.3 mg/kg. This is another data set of the same source.
Data set [5] in a line: in vivo. The settings on record: Wistar, rat, iv, 0.3 mg/kg. The source holds these as a separate data set.
The nature of data set [6]: in vivo. The note with it: mouse, iv, 0.3 mg/kg. This is another data set of the same source.
A short description of data set [7]: in vivo. The note with it: Wistar, rat, iv, 0.3 mg/kg. The source holds these as a separate data set.
Data set [8] is described as follows: in vivo. The note with it: Wistar, rat, po, 0.6 mg/kg. The source holds these as a separate data set.

Regarding `FC(F)c1cncc(-c2ccc3ncc4nnc(C5=CCCOCC5)n4c3c2)c1`, the values for the Vd at 24 h in data set [1] and in data set [5] were 3.7 L/kg and 1.8 L/kg, respectively. The results for the half-life at 24 h in data set [2], in data set [4] and in data set [7] were 240 min, 40.8 min and 50.4 min, respectively. Moreover, the clearance at 24 h in data set [3] is 36.7 mL/min/kg; in data set [6], 135 mL/min/kg. Moreover, in data set [8], the bioavailability at 24 h is 22%.
